In assay [1] the target is ACC1 (Homo sapiens (Human), UniProt Q13085). The experiment in a line: Acetyl-CoA carboxylase inhibition activity assay in vitro (ADP-Glo kinase assay), ACC1. The format is biochemical. Particulars: 1 nM ACC1, 5% DMSO, 25° C. The procedure: (§1) The inhibitory action of the compounds against ACC1 or ACC2 was determined by using ADP-Clo™ kinase assay kit from Promega. The ADP-Glo™ Kinase Assay is a luminescent ADP detection assay to measure enzymatic activity by quantifying the amount of ADP produced during an enzyme reaction. The assay is performed in two steps; first, after the enzyme reaction, an equal volume of ADP-Glo™ Reagent is added to terminate the reaction and deplete the remaining ATP. Second, the Kinase Detection Reagent is added to simultaneously convert ADP to ATP and allow the newly synthesized ATP to be measured using a luciferase/luciferin reaction. Luminescence can be correlated to ADP concentrations by using an ATP-to-ADP conversion curve.
(§2) The detailed procedure is as follows. • a. 4.5 μL/well of ACC1/ACC2 working solution (2.22 nM) was added to a 384-well reaction plate (PerkinElmer, 6007290). • b. The compound (10 mM) was diluted with 100% DMSO 500 times to a concentration of 20 μM, the dilute compound solution was diluted 1:3 in succession in a 384-well dilution plate (3657, corning) to gradient concentrations of 20, 6.67, 2.22, 0.74, 0.25, 0.082, 0.027, 0.009, 0.003, 0.001, 0 μM; • c. 0.5 μL/well of the compound solution (prepared in step b) was added to the 384-well reaction plate (prepared in step a), the plate was centrifuged at 1000 rpm and incubated at 25° C. for 15 minutes; • d. 0.5 μL/well of substrate mixture (ATP (10 mM), Acetyl-CoA (2 mM), NaHCO3 (1000 mM)) was transfered into the 384-well reaction plate, the plate was centrifuged at 1000 rpm and incubated at 25° C. for 30 minutes. The compound final gradient concentrations in the reaction system were 1000, 333.3, 111.1, 37.04, 12.35, 4.12, 1.37, 0.46, 0.15, 0.05, 0 nM. The final concentration of DMSO was 5%; the final concentration of ACC1/ACC2 is 1 nM. • e. 10 μL/well of ADP-Glo solution was transfered into the 384-well reaction plate, the plate was centrifuged at 1000 rpm and incubated at 25° C. for 40 minutes. • f. 20 µL/well of kinase detection reagent was transfered into the 384-well reaction plate, the plate was centrifuged at 1000 rpm and incubated at 25° C. for 40 minutes. • g. Relative Light Units (RLU) was read on an Envision multifunction plate reader. The signal intensity represents the level of ACC1/ACC2 kinase activity.
(§3) The ACC1/ACC2 working solution, substrate mixture, ADP-Glo solution and kinase detection reagent used in the assay are all prepared by using 1× kinase reaction buffer [hydroxyethylpiperazineethanesulfonic acid (HEPES, 50 mM), MgCl2 (2 mM), lauryl polyglycol ether (BRIJ-35, 0.01%), potassium citrate (2 mM), bovine serum albumin (BSA, 50 μg/mL), dithiothreitol (DTT, 2 mM)].
(§4) Data for each concentration, as well as the positive and negative controls were averaged, and the standard deviation was calculated. Percent inhibition was calculated by the formula: 100×(average negative control−compound)/(average negative control−average positive control). The IC50 for each compound was calculated by fitting the data with a nonlinear regression equation: Y=Bottom+(Top−Bottom)/(1+10^((Log IC50−X)×HillSlope)), where X is the log of compound concentration and Y is percent inhibition. 0.1 μM ND-630 was as positive control in the assay.

The target of assay [2] is ACC2 (Homo sapiens (Human), UniProt O00763). Kind of assay: Acetyl-CoA carboxylase inhibition activity assay in vitro (ADP-Glo kinase assay), ACC2. The format is biochemical. The note with it: 1 nM ACC2, 5% DMSO, 25° C. The procedure: as §1, §2, §3, §4
On the technique in general: In ADP-Glo the light output rises with the ADP produced.

Sequence of ACC2 (O00763 whole entry, species assumed): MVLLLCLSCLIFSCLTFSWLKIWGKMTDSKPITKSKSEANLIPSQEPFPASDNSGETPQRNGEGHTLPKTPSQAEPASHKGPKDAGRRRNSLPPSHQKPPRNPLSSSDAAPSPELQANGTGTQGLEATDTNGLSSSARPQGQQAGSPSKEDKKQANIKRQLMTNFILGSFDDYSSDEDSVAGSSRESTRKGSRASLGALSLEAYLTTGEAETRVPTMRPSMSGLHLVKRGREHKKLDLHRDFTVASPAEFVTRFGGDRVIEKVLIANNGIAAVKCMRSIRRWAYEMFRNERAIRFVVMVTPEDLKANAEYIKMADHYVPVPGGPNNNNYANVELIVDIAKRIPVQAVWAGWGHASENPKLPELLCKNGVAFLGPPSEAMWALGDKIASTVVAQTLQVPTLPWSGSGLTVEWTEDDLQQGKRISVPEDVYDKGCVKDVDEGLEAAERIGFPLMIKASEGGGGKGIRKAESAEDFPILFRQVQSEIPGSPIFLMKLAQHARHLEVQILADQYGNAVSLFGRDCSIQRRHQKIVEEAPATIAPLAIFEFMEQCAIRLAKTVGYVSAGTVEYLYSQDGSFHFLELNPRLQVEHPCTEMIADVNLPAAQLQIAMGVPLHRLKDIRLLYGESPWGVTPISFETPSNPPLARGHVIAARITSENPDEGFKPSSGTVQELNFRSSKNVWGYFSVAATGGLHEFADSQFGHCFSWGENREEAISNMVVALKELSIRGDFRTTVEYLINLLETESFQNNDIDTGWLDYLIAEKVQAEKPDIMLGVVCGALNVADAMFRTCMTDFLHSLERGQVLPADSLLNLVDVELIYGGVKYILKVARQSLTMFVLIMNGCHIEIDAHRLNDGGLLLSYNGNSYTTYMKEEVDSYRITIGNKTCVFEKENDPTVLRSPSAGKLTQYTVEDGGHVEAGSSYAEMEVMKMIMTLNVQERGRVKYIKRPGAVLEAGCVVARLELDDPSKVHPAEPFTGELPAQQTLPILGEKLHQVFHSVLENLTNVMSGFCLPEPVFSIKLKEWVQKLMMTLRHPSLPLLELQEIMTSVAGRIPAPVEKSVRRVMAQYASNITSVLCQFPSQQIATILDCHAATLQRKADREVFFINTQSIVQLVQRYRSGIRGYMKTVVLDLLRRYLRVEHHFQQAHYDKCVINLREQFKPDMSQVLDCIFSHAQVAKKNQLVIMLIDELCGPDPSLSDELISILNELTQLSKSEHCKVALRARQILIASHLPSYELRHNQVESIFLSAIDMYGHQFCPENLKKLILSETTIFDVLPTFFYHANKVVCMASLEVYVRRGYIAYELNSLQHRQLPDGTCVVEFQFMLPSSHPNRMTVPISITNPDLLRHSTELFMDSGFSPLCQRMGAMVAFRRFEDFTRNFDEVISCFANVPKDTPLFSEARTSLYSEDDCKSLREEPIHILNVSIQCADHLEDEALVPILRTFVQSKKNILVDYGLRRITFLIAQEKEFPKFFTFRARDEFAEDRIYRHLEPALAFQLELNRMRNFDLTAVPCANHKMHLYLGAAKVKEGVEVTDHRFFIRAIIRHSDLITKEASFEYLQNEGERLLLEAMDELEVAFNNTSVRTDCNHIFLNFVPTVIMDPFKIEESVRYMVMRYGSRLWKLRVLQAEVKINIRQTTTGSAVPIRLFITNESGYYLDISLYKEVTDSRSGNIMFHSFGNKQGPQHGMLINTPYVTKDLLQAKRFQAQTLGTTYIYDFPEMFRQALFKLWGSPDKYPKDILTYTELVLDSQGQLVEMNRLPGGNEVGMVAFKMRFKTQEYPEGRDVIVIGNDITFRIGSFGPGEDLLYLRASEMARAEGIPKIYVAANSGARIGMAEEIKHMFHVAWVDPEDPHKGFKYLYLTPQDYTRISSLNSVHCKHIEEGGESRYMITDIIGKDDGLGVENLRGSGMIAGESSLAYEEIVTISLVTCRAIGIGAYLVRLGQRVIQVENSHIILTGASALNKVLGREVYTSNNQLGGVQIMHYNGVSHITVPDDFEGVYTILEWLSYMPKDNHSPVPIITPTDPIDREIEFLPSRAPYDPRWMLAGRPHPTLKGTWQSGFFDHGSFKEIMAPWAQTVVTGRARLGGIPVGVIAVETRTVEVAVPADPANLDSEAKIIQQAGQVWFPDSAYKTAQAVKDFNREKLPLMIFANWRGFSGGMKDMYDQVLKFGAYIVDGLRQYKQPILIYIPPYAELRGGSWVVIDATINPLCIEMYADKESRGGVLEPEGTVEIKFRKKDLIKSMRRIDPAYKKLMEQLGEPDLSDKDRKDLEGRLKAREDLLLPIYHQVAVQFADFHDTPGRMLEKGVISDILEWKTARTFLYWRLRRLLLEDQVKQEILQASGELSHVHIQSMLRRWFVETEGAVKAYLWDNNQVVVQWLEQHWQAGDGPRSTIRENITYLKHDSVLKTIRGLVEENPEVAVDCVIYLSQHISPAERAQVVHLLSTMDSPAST

The term IC50 denotes the point on the concentration scale where inhibition reaches its midpoint. `COc1ccccc1C(Cn1c(=O)n(C(C)(C)C(=O)O)c(=O)c2c(C)c(-c3ncco3)sc21)O[C@H]1C[C@H]2C[C@@H](O)C[C@H]2C1` (stereo partly drawn) [Example 1, 2-[1-[2-[[(3aS,6aR)-5-hydroxy-1,2,3,3a,4,5,6,6a-octahydropentalen-2-yl]oxy]-2-(2-methoxyphenyl)ethyl]-5-methyl-6-oxazol-2-yl-2,4-dioxo-thieno[2,3-d]pyrimid-3-yl]-2-methyl-propanoic acid] displayed an IC50 in assay [1] of 0.93 nM. This counts as sub-nanomolar.

Consider `COc1ccccc1C(Cn1c(=O)n(C(C)(C)C(=O)O)c(=O)c2c(C)c(-c3ncco3)sc21)OC1CC2CN(S(C)(=O)=O)CC2C1` (centres unmarked) [Example 10, 2-[1-[2-(2-methoxyphenyl)-2-[(2-methylsulfonyl-3,3a,4,5,6,6a-hexahydro-1H-cyclopenteno[c]pyrrole-5-yl)oxy]ethyl]-5-methyl-6-oxazol-2-yl-2,4-dioxo-thieno[2,3-d]pyrimid-3-yl]-2-methyl-propanoic acid], for which the IC50 in assay [2] worked out at 1.76 nM; in assay [1] it was 0.81 nM.

Consider `COc1ccccc1C(Cn1c(=O)n(C(C)(C)C(=O)O)c(=O)c2c(C)c(-c3ncco3)sc21)OC1CC2COCC2C1` (centres unmarked) [Example 13, 2-[1-[2-(3,3a,4,5,6,6a-hexahydro-1H-cyclopenteno[c]furan5-oxy)-2-(2-methoxyphenyl)ethyl)-5-methyl-6-oxazol-2-yl-2,4-dioxo-thieno[2,3-d]pyrimid-3-yl]-2-methyl-propanoic acid], for which the IC50 in assay [2] was 4.24 nM; in assay [1], 1.76 nM. The compound `COc1ccccc1C(Cn1c(=O)n(C(C)(C)C(=O)O)c(=O)c2c(C)c(-c3ncco3)sc21)O[C@@H]1C[C@@H]2CC(C)(O)C[C@@H]2C1` (stereo partly drawn) [Example 14, 2-[1-[2-[[(3aR,6aS)-5-hydroxy-5-methyl-2,3,3a,4,6,6a-hexahydro-1H-pentalen-2-yl]oxy]-2-(2-methoxyphenyl)ethyl]-5-methyl-6-oxazol-2-yl-2,4-dioxo-thieno[2,3-d]pyrimid-3-yl]-2-methyl-propanoic acid] came in with an IC50 in assay [1] of 1.43 nM.

With `COc1ccccc1C(Cn1c(=O)n(C(C)(C)C(=O)O)c(=O)c2c(C)c(-c3ncco3)sc21)O[C@H]1C[C@H]2CC(C#N)C[C@H]2C1` (some centres unmarked) [Example 15, 2-[1-[2-[(5-cyano-1,2,3,3a,4,5,6,6a-octahydropentalen-2-yl)oxy]-2-(2-methoxyphenyl)ethyl]-5-methyl-6-oxazol-2-yl-2,4-dioxo-thieno[2,3-d]pyrimid-3-yl]-2-methyl-propanoic acid], the IC50 amounted to 6.53 nM in assay [2] and 1.64 nM in assay [1]. The compound `COc1ccccc1C(Cn1c(=O)n(C(C)(C)C(=O)O)c(=O)c2c(C)c(-c3ncco3)sc21)O[C@H]1C[C@H]2C[C@H](F)C[C@H]2C1` (stereo partly drawn) [Example 17, 2-[1-[2-[[(3aR,6aS)-5-fluoro-1,2,3,3a,4,5,6,6a-octahydropentalen-2-yl]oxy]-2-(2-methoxyphenyl)ethyl)-5-methyl-6-oxazol-2-yl-2,4-dioxo-thieno[2,3-d]pyrimid-3-yl]-2-methyl-propanoic acid] had an IC50 in assay [1] of 2.24 nM. Still for that read-out and setting: in the case of `COc1ccccc1C(Cn1c(=O)n(C(C)(C)C(=O)O)c(=O)c2c(C)c(-c3ncco3)sc21)O[C@@H]1C[C@@H]2CC(O)(C(F)(F)F)C[C@@H]2C1` (stereo partly drawn) [Example 18, 2-[1-[2-[[(3aR,6aS)-5-hydroxy-5-(trifluoromethyl)-2,3,3a,4,6,6a-hexahydro-1H-pentalen-2-yl]oxy]-2-(2-methoxyphenyl)ethyl]-5-methyl-6-oxazol-2-yl-2,4-dioxo-thieno[2,3-d]pyrimid-3-yl]-2-methyl-propanoic acid] it was 0.89 nM.

`CCC1(O)C[C@H]2C[C@@H](OC(Cn3c(=O)n(C(C)(C)C(=O)O)c(=O)c4c(C)c(-c5ncco5)sc43)c3ccccc3OC)C[C@H]2C1` (stereo partly drawn) [Example 19, 2-[1-[2-[[(3aR,6aS)-5-ethyl-5-hydroxy-2,3,3a,4,6,6a-hexahydro-1H-pentalen-2-yl]oxy]-2-(2-methoxyphenyl)ethyl)-5-methyl-6-oxazol-2-yl-2,4-dioxo-thieno[2,3-d]pyrimid-3-yl]-2-methyl-propanoic acid]: the values for the IC50 in assay [2] and in assay [1] were 5.45 nM and 0.88 nM, respectively.

On to `COc1ccccc1C(Cn1c(=O)n(C(C)(C)C(=O)O)c(=O)c2c(C)c(-c3ncco3)sc21)O[C@@H]1C[C@@H]2CC(F)(F)C[C@@H]2C1` (stereo partly drawn) [Example 21, 2-[1-[2-[[(3aR,6aS)-5,5-difluoro-2,3,3a,4,6,6a-hexahydro-1H-pentalen-2-yl]oxy]-2-(2-methoxyphenyl)ethyl)-5-methyl-6-oxazol-2-yl-2,4-dioxo-thieno[2,3-d]pyrimid-3-yl]-2-methyl-propanoic acid], for which the values for the IC50 in assay [2] and in assay [1] were 4.07 nM and 1.43 nM, respectively.

With `COc1ccccc1C(Cn1c(=O)n(C(C)(C)C(=O)O)c(=O)c2c(C)c(-c3ncco3)sc21)O[C@H]1C[C@H]2CC(O)C(O)[C@H]2C1` (stereo partly drawn) [Example 22, 2-[1-[2-[[(2S,3aS,6aR)-4,5-dihydroxy-1,2,3,3a,4,5,6,6a-octahydropentalen-2-yl]oxy]-2-(2-methoxyphenyl)ethyl]-5-methyl-6-oxazol-2-yl-2,4-dioxo-thieno[2,3-d]pyrimid-3-yl]-2-methyl-propanoic acid], the IC50 in assay [2] is 8.44 nM; in assay [1] it was 1.55 nM. The like results for `COc1ccccc1C(Cn1c(=O)n(C(C)(C)C(=O)O)c(=O)c2c(C)c(-c3ncco3)sc21)O[C@@H]1C[C@@H]2CC(O)(C3CC3)C[C@@H]2C1` (stereo partly drawn) [Example 23, 2-[1-[2-[[(3aR,6aS)-5-cyclopropyl-5-hydroxy-2,3,3a,4,6,6a-hexahydro-1H-pentalen-2-yl]oxy]-2-(2-methoxyphenyl)ethyl]-5-methyl-6-oxazol-2-yl-2,4-dioxo-thieno[2,3-d]pyrimid-3-yl]-2-methyl-propanoic acid] were, in that order, 1.13 nM and 0.67 nM. The like results for `COc1ccccc1C(Cn1c(=O)n(C(C)(C)C(=O)O)c(=O)c2c(C)c(-c3ncco3)sc21)O[C@@H]1C[C@@H]2CC(O)(C#N)C[C@@H]2C1` (stereo partly drawn) [Example 26, 2-[1-[2-[[(3aR,6aS)-5-cyano-5-hydroxy-2,3,3a,4,6,6a-hexahydro-1H-pentalen-2-yl]oxy]-2-(2-methoxyphenyl)ethyl]-5-methyl-6-oxazol-2-yl-2,4-dioxo-thieno[2,3-d]pyrimid-3-yl]-2-methyl-propanoic acid] were, in that order, 5.4 nM and 1.43 nM. On the same counts, the results for `COc1ccccc1C(Cn1c(=O)n(C(C)(C)C(=O)O)c(=O)c2c(C)c(-c3ncco3)sc21)O[C@@H]1C[C@@H]2CC(O)(CC#N)C[C@@H]2C1` (stereo partly drawn) [Example 27, 2-[1-[2-[[(3aS,6aR)-5-(cyanomethyl)-5-hydroxy-2,3,3a,4,6,6a-hexahydro-1H-pentalen-2-yl]oxy]-2-(2-methoxyphenyl)ethyl]-5-methyl-6-oxazol-2-yl-2,4-dioxo-thieno[2,3-d]pyrimid-3-yl]-2-methyl-propanoic acid] are 4.8 nM and 1.56 nM. `COc1ccccc1C(Cn1c(=O)n(C(C)(C)C(=O)O)c(=O)c2c(C)c(-c3ncco3)sc21)O[C@@H]1C[C@@H]2C[C@@H](S(C)(=O)=O)C[C@@H]2C1` (stereo partly drawn) [Example 29, 2-[1-[2-[[(3aR,6aS)-5-methylsulfonyl-1,2,3,3a,4,5,6,6a-octahydropentalen-2-yl]oxy]-2-(2-methoxyphenyl)ethyl]-5-methyl-6-oxazol-2-yl-2,4-dioxo-thieno[2,3-d]pyrimid-3-yl]-2-methyl-propanoic acid]: the values for the IC50 in assay [2] and in assay [1] were 2.19 nM and 0.47 nM, respectively.

In the case of `COc1ccccc1C(Cn1c(=O)n(C(C)(C)C(=O)O)c(=O)c2c(C)c(-c3ncco3)sc21)O[C@H]1C[C@H]2CO[C@@H](C1)O2` (some centres unmarked) [Example 32], the IC50 amounted to 2.74 nM in assay [2] and 1.21 nM in assay [1].

Source of the values: patent US10759812B2, “Thienopyrimidine derivative and use thereof in medicine” (SUNSHINE LAKE PHARMA CO., LTD., priority 2017, dated 2020).
